“Also recorded” adds a separate entry of the source.
System: Perkinsus proliferation
Test: Effect of selectable marker candidates on Perkinsus proliferation (OD600 over time, visual inspection of treated cells)
Type: cell-based, Perkinsus marinus
Details: for position of OD600 curve in FIG. 2: at 15 days, curves ranked top to bottom; for effect on parasite growth / Perkinsus proliferation: FIG. 2, optical density (OD600) as a function of time in days
Procedure: FIG. 2 is a graph of Optical density (OD600) as a function of time, in days, for various selectable marker candidates for their effect on Perkinsus proliferation. […]
G418 (800 μg/ml) was highly toxic, with visible effects six days after treatment. […] Visual inspection of the treated cells indicated changes in the morphology and cell death. These changes were more evident for G418 and pyrimethamine than with the CAP treatment.

Structure (SMILES) | position of OD600 curve in FIG. 2 (100 μg/ml) | position of OD600 curve in FIG. 2 (400 μg/ml) | time to visible effects after treatment (800 μg/ml) | toxicity to the parasite (800 μg/ml) | position of OD600 curve in FIG. 2 (800 μg/ml) | time to cells dying after treatment (100 and 400 μg/ml) [days] | effect on parasite growth / Perkinsus proliferation | changes in the morphology and cell death, visual inspection of treated cells (compared with the CAP treatment) | effect on parasite growth (lower doses tested, 100 and 400 μg/ml) | position of OD600 curve in FIG. 2 (50 μg/ml) | effect on parasite growth / Perkinsus proliferation (listed as CAP)
CN[C@@H]1[C@@H](O)[C@@H](O[C@@H]2[C@@H](O)[C@H](O[C@H]3O[C@H]([C@@H](C)O)[C@@H](O)[C@H](O)[C@H]3N)[C@@H](N)C[C@H]2N)OC[C@]1(C)O [G418] | lowest curve | seventh highest curve | six | highly toxic | sixth highest curve | 15 | inhibited parasite growth; also recorded: inhibition of Perkinsus proliferation, especially G418 | more evident | still inhibited parasite growth |  | 
O=C(N[C@H](CO)[C@H](O)c1ccc([N+](=O)[O-])cc1)C(Cl)Cl [chloramphenicol] | fourth highest curve | fifth highest curve |  |  |  |  | inhibited parasite growth |  |  | third highest curve | inhibition of Perkinsus proliferation

Reference: patent publication US20100093062A1, “TR[…] FOR PERKINSUS SPECIES” (priority 2007, published 2010)
